Biological target: T1, FL hMALT1 enzyme (Homo sapiens, UniProt Q9UDY8)
T1 sequence (Q9UDY8 1-824): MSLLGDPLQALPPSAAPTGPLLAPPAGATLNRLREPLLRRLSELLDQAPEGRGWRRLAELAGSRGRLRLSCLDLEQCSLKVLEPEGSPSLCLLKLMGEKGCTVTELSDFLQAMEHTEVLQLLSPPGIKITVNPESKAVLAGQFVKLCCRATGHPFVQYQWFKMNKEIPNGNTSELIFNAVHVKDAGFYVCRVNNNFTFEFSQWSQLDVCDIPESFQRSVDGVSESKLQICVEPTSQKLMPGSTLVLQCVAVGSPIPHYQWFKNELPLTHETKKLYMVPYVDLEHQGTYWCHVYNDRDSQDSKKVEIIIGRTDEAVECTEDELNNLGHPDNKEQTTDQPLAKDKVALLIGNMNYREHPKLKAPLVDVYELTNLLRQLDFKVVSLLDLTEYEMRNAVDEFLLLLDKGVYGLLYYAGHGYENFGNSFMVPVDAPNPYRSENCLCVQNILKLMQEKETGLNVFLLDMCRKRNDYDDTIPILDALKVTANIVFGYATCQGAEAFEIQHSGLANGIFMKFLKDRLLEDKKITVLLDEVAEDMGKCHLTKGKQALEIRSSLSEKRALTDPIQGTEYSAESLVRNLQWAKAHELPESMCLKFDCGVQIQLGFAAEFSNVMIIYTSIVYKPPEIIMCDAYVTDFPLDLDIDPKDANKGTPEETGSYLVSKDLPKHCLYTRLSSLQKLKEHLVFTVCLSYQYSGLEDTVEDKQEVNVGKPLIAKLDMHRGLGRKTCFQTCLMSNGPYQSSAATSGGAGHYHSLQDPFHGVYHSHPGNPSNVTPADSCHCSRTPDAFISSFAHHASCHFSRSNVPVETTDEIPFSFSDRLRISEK
Assay: biochemical
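Note: Cell-free protease assay: enzyme preincubated with compound 30 min at room temperature, then cleavage of fluorogenic Ac-LVSR-AMC substrate (100 µM) tracked by fluorescence (ex 360/em 460 nm).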

SMILES	IC50
CN(C(=O)C1CN2CCC1CC2)[C@@H](c1ccc(NC2Cc3ccccc3C2(C)C)nc1)C(F)(F)F (single isomer, unassigned) [Example 120]	770 nM
CN(C(=O)C1CN2CCC1CC2)[C@@H](c1ccc(NC2Cc3ccccc3C2(C)C)nc1)C(F)(F)F (single isomer, unassigned) [Example 121]	510 nM
CN(C(=O)C1CN2CCC1CC2)[C@@H](c1ccc(NC2Cc3ccccc3C2(C)C)nc1)C(F)(F)F (single isomer, unassigned) [Example 122]	1140 nM
CN(C(=O)C1CN2CCC1CC2)[C@@H](c1ccc(NC2Cc3ccccc3C2(C)C)nc1)C(F)(F)F (single isomer, unassigned) [Example 123]	870 nM
CN(C(=O)C1CNC(=O)CO1)[C@@H](c1ccc(NC2Cc3ccccc3C2(C)C)cn1)C(F)(F)F (single isomer, unassigned) [Example 135]	450 nM
CN(C(=O)C1CN2CCC1CC2)[C@@H](c1ccc(NC2Cc3ccccc3C2(C)C)cn1)C(F)(F)F (single isomer, unassigned) [Example 138]	780 nM
CN(C(=O)C1CN2CCC1CC2)[C@@H](c1ccc(NC2Cc3ccccc3C2(C)C)cn1)C(F)(F)F (single isomer, unassigned) [Example 139]	370 nM
CN1CCC(C(=O)N(C)[C@@H](c2ccc(NC3Cc4ccccc4C3(C)C)nc2)C(F)(F)F)CC1 (single isomer, unassigned) [Example 145]	230 nM
CN(C(=O)C1CCNCC1)[C@@H](c1ccc(NC2Cc3ccccc3C2(C)C)nc1)C(F)(F)F (single isomer, unassigned) [Example 148]	290 nM
CN(C(=O)C1CCNCC1)[C@@H](c1ccc(NC2Cc3ccccc3C2(C)C)nc1)C(F)(F)F (single isomer, unassigned) [Example 149]	240 nM
CN1CC(=O)NCC1C(=O)N(C)[C@@H](c1ccc(N[C@H]2Cc3ccccc3C2(C)C)cn1)C(F)(F)F (single isomer, unassigned) [Example 201]	110 nM
CN1CC(=O)NCC1C(=O)N(C)[C@@H](c1ccc(N[C@H]2Cc3ccccc3C2(C)C)cn1)C(F)(F)F (single isomer, unassigned) [Example 202]	160 nM
CN(C(=O)CN1CC(=O)NC1=O)[C@@H](c1ccc(NC2Cc3ccccc3C2(C)C)cn1)C(F)(F)F (single isomer, unassigned) [Example 212]	130 nM
CN(C(=O)CN1CC(=O)NC1=O)[C@@H](c1ccc(NC2Cc3ccccc3C2(C)C)cn1)C(F)(F)F (single isomer, unassigned) [Example 213]	500 nM
CNC(=O)N1CCC12CC(C(=O)N(C)[C@@H](c1ccc(NC3Cc4ccccc4C3(C)C)cn1)C(F)(F)F)C2 (single isomer, unassigned) [Example 238]	470 nM
CNC(=O)N1CCC12CC(C(=O)N(C)[C@@H](c1ccc(NC3Cc4ccccc4C3(C)C)cn1)C(F)(F)F)C2 (single isomer, unassigned) [Example 239]	150 nM
CN(C(=O)CN1CCNC1=O)[C@@H](c1ccc(NC2Cc3ccccc3C2(C)C)cn1)C(F)(F)F (single isomer, unassigned) [Example 245]	130 nM
CN(C(=O)CN1CCNC1=O)[C@@H](c1ccc(NC2Cc3ccccc3C2(C)C)cn1)C(F)(F)F (single isomer, unassigned) [Example 246]	330 nM
CN(C(=O)C1CC2(CCN2CCO)C1)[C@@H](c1ccc(NC2Cc3ccccc3C2(C)C)cn1)C(F)(F)F (single isomer, unassigned) [Example 248]	140 nM

More lines, now with the values ahead:

IC50	SMILES
300 nM	CN(C(=O)C1CCCNC1)[C@@H](c1ccc(NC2Cc3ccccc3C2(C)C)cn1)C(F)(F)F (single isomer, unassigned) [Example 127]
400 nM	CN1CCCC(C(=O)N(C)[C@@H](c2ccc(NC3Cc4ccccc4C3(C)C)cn2)C(F)(F)F)C1 (single isomer, unassigned) [Example 128]
260 nM	CN1CCCC(C(=O)N(C)[C@@H](c2ccc(NC3Cc4ccccc4C3(C)C)cn2)C(F)(F)F)C1 (single isomer, unassigned) [Example 131]
680 nM	CN(C(=O)N1CCS(=O)(=O)CC1)[C@@H](c1ccc(NC2Cc3ccccc3C2(C)C)cn1)C(F)(F)F (single isomer, unassigned) [Example 143]
260 nM	CN(C(=O)C1CCNCC1)[C@@H](c1ccc(NC2Cc3ccccc3C2(C)C)cn1)C(F)(F)F (single isomer, unassigned) [Example 147]
150 nM	CN(C(=O)C1CC2(CCN2)C1)[C@@H](c1ccc(NC2Cc3ccccc3C2(C)C)cn1)C(F)(F)F (single isomer, unassigned) [Example 154]
180 nM	CN(C(=O)C1CC2(CCN2)C1)[C@@H](c1ccc(NC2Cc3ccccc3C2(C)C)cn1)C(F)(F)F (single isomer, unassigned) [Example 155]
440 nM	CN(C(=O)[C@H]1C[C@]2(CCN2C)C1)[C@@H](c1ccc(NC2Cc3ccccc3C2(C)C)cn1)C(F)(F)F (single isomer, unassigned) [Example 158]
310 nM	CN(C(=O)C1COCC(=O)N1)[C@@H](c1ccc(NC2Cc3ccccc3C2(C)C)cn1)C(F)(F)F (single isomer, unassigned) [Example 161]
110 nM	CN(C(=O)C1COCC(=O)N1)[C@@H](c1ccc(NC2Cc3ccccc3C2(C)C)cn1)C(F)(F)F (single isomer, unassigned) [Example 162]
190 nM	CN(C(=O)C1COCC(=O)N1)[C@@H](c1ccc(NC2Cc3ccccc3C2(C)C)cn1)C(F)(F)F (single isomer, unassigned) [Example 163]
6600 nM	COc1cccc2c1CC(Nc1ccc([C@H](N(C)C(=O)C3CCS(=O)(=O)CC3)C(F)(F)F)nc1)C2 (single isomer, unassigned) [Example 177]
260 nM	COc1cccc2c1CC(Nc1ccc([C@H](N(C)C(=O)C3CCS(=O)(=O)CC3)C(F)(F)F)nc1)C2 (single isomer, unassigned) [Example 178]
3300 nM	CN(C(=O)C1CCS(=O)(=O)CC1)[C@@H](c1ccc(NC2Cc3cccc(C(F)(F)F)c3C2)cn1)C(F)(F)F (single isomer, unassigned) [Example 190]
2600 nM	CCc1cccc2c1CC(Nc1ccc([C@H](N(C)C(=O)C3CCS(=O)(=O)CC3)C(F)(F)F)nc1)C2 (single isomer, unassigned) [Example 197]
1100 nM	CN(C(=O)C1CCS(=O)(=O)CC1)[C@@H](c1ccc(N[C@@H]2Cc3ccc(Cl)cc3C2)cn1)C(F)(F)F (single isomer, unassigned) [Example 200]
120 nM	CN(C(=O)[C@H]1C[C@@]2(COC(=O)N2)C1)[C@@H](c1ccc(NC2Cc3ccccc3C2(C)C)cn1)C(F)(F)F (single isomer, unassigned) [Example 207]
200 nM	CN(C(=O)C1CN(S(C)(=O)=O)C1)[C@@H](c1ccc(NC2Cc3ccccc3C2(C)C)cn1)C(F)(F)F (single isomer, unassigned) [Example 210]
320 nM	CN(C(=O)C1C2CS(=O)(=O)CC21)[C@@H](c1ccc(NC2Cc3ccccc3C2(C)C)cn1)C(F)(F)F (single isomer, unassigned) [Example 214]
170 nM	CN(C(=O)C1C2CS(=O)(=O)CC21)[C@@H](c1ccc(NC2Cc3ccccc3C2(C)C)cn1)C(F)(F)F (single isomer, unassigned) [Example 217]
140 nM	CN(C(=O)C1CC2(CCC(=O)N2)C1)[C@@H](c1ccc(NC2Cc3ccccc3C2(C)C)cn1)C(F)(F)F (single isomer, unassigned) [Example 229]
110 nM	CN(C(=O)C1CC2(CCC(=O)N2)C1)[C@@H](c1ccc(NC2Cc3ccccc3C2(C)C)cn1)C(F)(F)F (single isomer, unassigned) [Example 231]
210 nM	CC(=O)N1CCC12CC(C(=O)N(C)[C@@H](c1ccc(NC3Cc4ccccc4C3(C)C)cn1)C(F)(F)F)C2 (single isomer, unassigned) [Example 236]
200 nM	COCCN1CCC12CC(C(=O)N(C)[C@@H](c1ccc(NC3Cc4ccccc4C3(C)C)cn1)C(F)(F)F)C2 (single isomer, unassigned) [Example 242]
110 nM	CN(C(=O)C1CCS(=O)(=O)CC1)[C@@H](c1ccc(NC2Cc3ccc(C(F)(F)F)cc3C2)cn1)C(F)(F)F (single isomer, unassigned) [Example 255]
1100 nM	CN(C(=O)C1CCS(=O)(=O)CC1)[C@@H](c1ccc(NC2Cc3ccc(C(F)(F)F)cc3C2)cn1)C(F)(F)F (single isomer, unassigned) [Example 256]
2000 nM	CN(C(=O)C1CCS(=O)(=O)CC1)[C@@H](c1ccc(NC2Cc3cccc(C#N)c3C2)cn1)C(F)(F)F (single isomer, unassigned) [Example 257]
4500 nM	CN(C(=O)C1CCS(=O)(=O)CC1)[C@@H](c1ccc(NC2Cc3ccc(F)cc3C2)cn1)C(F)(F)F (single isomer, unassigned) [Example 258]
